Laboratory results as given in patent US9402821B2, “Methods and pharmaceutical compositions for treatment of cystic fibrosis” (INSERM (Institut National de la sante et de la Recherche …, priority 2012, dated 2016).
“Also recorded” adds a separate entry of the source.

Assays:
Assay type in all cases: cell-based
IL-8 secretion = assay: IL-8 release into supernatant of cell cultures; settings: TNFα; Beas2B, Calu-3 and heterologous HeLa systems (FIG. 2C)
Method: Cells were transiently transfected by the short IL-8 promoter-firefly luciferase reporter and renilla luciferase reference and inflammation was induced by 10 ng/ml TNFα for 1 h. A. HeLa cells were pre-treated with diluent or different doses of sulindac 1 h before inflammation induction and 4 h after. IL-8 promoter activity in cells treated with sulindac+TNFα was expressed in percent of diluent+TNFα. B. After treatment, HeLa Ctr cells were lysed with TRIzol (Invitrogen). Total RNA was extracted, and 1 μg of total RNA was reverse transcribed with a reverse transcription kit. IL-8 mRNA expression was quantified by real-time quantitative PCR (qPCR). The comparative threshold cycle (CT) method was used for relative quantification of PCR products after IL-8 was normalised to TBP (ΔCt=CtIL-8−CtTBP). IL-8 mRNA data in treated samples were expressed in fold changes over controls: fold changetreated sample=2^−ΔΔCt (with ΔΔCt=ΔCtreated sample−ΔCtcontrol). C After treatment, IL-8 in supernatant was measured by ELISA. The IL-8 stimulation of cells treated with test drug +TNFα were expressed as fold compared to drug −TNFα. […]
IL-8 secretion into the supernatant of cells cultures was measured with the IMMULITE 1000 Automated Analyser (Diagnostic Products Corp) and the commercially available Immulite chemiluminescent enzyme immunometric assays (Immulite®) according to the manufacturer's instructions.

IκB = assay: Western blot of cytosolic IκB after TNFα; settings: HeLa control cells; 500 μM 1 h pre-treatment; TNFα 10 ng/ml 30 min
Method: (§1) HeLa control cells were pre-treated with diluent (0.5%) or sulindac (500 μM) for 1 h and stimulated or not with 10 ng/ml TNFα for 30 min. Nuclear and cytosolic fractions were obtained by differential centrifugation. A. Analysis by western blot of cytosolic IKb quantity. The Iκb quantity was expressed in percent of control. […] B. Analysis by western blot of nuclear p65 quantity. Nuclear p65 quantity was expressed in percent of diluents+TNFα.
(§2) Nuclear and cytosolic fraction was obtained by differential centrifugation. Briefly, cells were lyses in buffer C (10 mM Hepes, 60 mM KCl, 1 mM EDTA, 7.8% NP40, 100 mM DTT, pH 7.6). After centrifugation, nucleus pellet were lyses in buffer N (27 mM Tris, 566 mM NaCl, 2 mM MgCl2, 1.3 mM EDTA, pH 8). Aliquots of fraction (30 μg protein) were separated by SDS-PAGE and transferred on PVDF membrane. The western blots were probed with mouse monoclonal antibodies specific for IκB or p65 (Santa-Cruz) 2 h at room temperature.

p65 = assay: Western blot of nuclear p65 after TNFα; settings: HeLa control cells; 500 μM 1 h pre-treatment; TNFα 10 ng/ml 30 min
Method: as §1, §2

CC1=C(CC(=O)O)c2cc(F)ccc2/C1=C\c1ccc([S+](C)[O-])cc1 (stereo not drawn) [sulindac, (Z)-5-fluoro-2-methyl-1-[p-(methylsulfinyl)benzylidene]-indene-3-acetic acid]
IL-8 secretion (IL-8 secretion): decrease of IL-8 secretion | degradation of cytosolic IκB induced by TNFα (IκB): did not modified this effect; also recorded: did not affect the degradation of IκB | nuclear translocation of NF-κB (nuclear p65 quantity) (p65): not significantly modified; also recorded: did not prevent the nuclear translocation of NF-κB
